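Five concentrations, 48 hours, 96-well plates. GI50 = concentration required for 50% inhibition of growth. Definition used: TGI = concentration required for complete inhibition of growth.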 Some results are limits rather than exact numbers.

Common to all, as to assay: NCI tumour cell line growth inhibition, 48 h
The test system of assay [1] is A549 NSCLC.
In assay [2] the test system is IGROV1 ovarian.
For assay [3], the system named is SN12C renal.
Assay [4] concerns HL-60(TB) leukemia.
For assay [5], the system named is COLO 205 colon.
Assay [6] deals with SK-MEL-28 melanoma.
The subject of assay [7] is LOX IMVI melanoma.
Assay [8] concerns UO-31 renal.
For assay [9], the system named is HCT-116 colon.
Assay [10] relates to A498 renal.

Regarding `CN(C)CC1CC/C(=C\c2ccc(O)cc2)C1=O` (stereo not given), the TGI in assay [1] was found to be 40.9 µM; in [2] it was 24.1 µM; in [3], 14 µM; in assay [4], 2.91 µM; in assay [5], 3.77 µM; in assay [6], 6.08 µM. Also, the TGI was determined as 5.51 µM in assay [7], 26.5 µM in assay [8], 4.09 µM in [9] and 21.3 µM in assay [10].

As to `C=CC[C@H](C[C@H](C[C@H](C[C@H](C[C@H](C[C@H](C[C@H](C[C@H](C[C@H](C[C@H](CCCCC)OC)OC)OC)OC)OC)OC)OC)OC)OC)OC`, the TGI in [1], in assay [2], in [3], in assay [4], in [5] and in assay [6] was greater than 100 µM throughout. Further, the TGI in [7], in assay [8], in assay [9] and in assay [10] was greater than 100 µM in each case.

For the compound `COC(=O)C(CCCN1C(=O)c2ccccc2C1=O)C(=O)OC`, the TGI in [1], in assay [2], in assay [3], in assay [4], in assay [5] and in assay [6] was greater than 100 µM each time. Besides, the TGI in assay [7], in assay [8], in assay [9] and in assay [10] was greater than 100 µM in each case.

For `O=C(/C=C/c1ccc(O)cc1)c1ccc(O)cc1`, the TGI in [1] was greater than 100 µM; in assay [2], greater than 100 µM; in assay [3], 79 µM; in assay [4], greater than 75.1 µM; in assay [5], greater than 65.9 µM; in assay [6] it was 61.3 µM. For the same compound, the TGI in [7] came out at 28.1 µM; in assay [8], 51.2 µM; in [9], 36.3 µM; in assay [10], 65.1 µM.

Take `Nc1ccccc1SC(CC(=O)c1ccccc1)c1cccc([N+](=O)[O-])c1` (stereo not given): the GI50 in assay [1] is 18.6 µM; in assay [2], 13.1 µM; in [3], 13.9 µM; in assay [4] it was 17.3 µM; in assay [5] it was 19.1 µM; in assay [6], 16.6 µM. For the same compound, the GI50 was 1.99 µM in assay [7], 3.11 µM in assay [8], 1.96 µM in [9] and 16.6 µM in [10]. The TGI in assay [1] was 36.7 µM; in assay [2], 28.1 µM; in [3], 26.9 µM; in assay [4], 40.1 µM; in [5] it was 34.7 µM; in assay [6] it was 30.3 µM. Moreover, the TGI in assay [7] worked out at 4.07 µM; in assay [8] it was 20.5 µM; in [9] it was 3.97 µM; in assay [10], 30.9 µM.

As to `N[C@@H]1CCCC[C@@H]1N.O=P([O-])([O-])CN(CCN(CP(=O)([O-])[O-])CP(=O)([O-])[O-])CP(=O)([O-])[O-].[Pt+2]`, the GI50 in [1], in assay [2], in assay [3], in [4], in assay [5] and in assay [6] was greater than 25 µM in each case. The GI50 in assay [7], in assay [8], in assay [9] and in assay [10] was greater than 25 µM throughout. Further, the TGI in [1], in assay [2], in assay [3], in [4], in assay [5] and in assay [6] was greater than 25 µM each time. Moreover, the TGI in [7], in assay [8], in assay [9] and in assay [10] was greater than 25 µM each time.

On to `COc1ccc2nc3cc(Cl)ccc3c(NCCNCC(C)O)c2c1` (stereo not given), for which the GI50 in [1] is 1.52 µM; in assay [2], 2.69 µM; in assay [3] it was 1.85 µM; in assay [4], 1.9 µM; in [5] it was 1.11 µM; in assay [6] it was 2.06 µM. The GI50 was 1.15 µM in assay [7], 1.73 µM in assay [8], 0.751 µM in assay [9] and 1.28 µM in assay [10]. In addition, the TGI was 3.16 µM in [1]; 10.2 µM in assay [2]; 7.4 µM in assay [3]; 6.05 µM in assay [4]; 2.79 µM in assay [5]; 4.02 µM in [6]. In addition, the TGI stood at 2.66 µM in assay [7], 4.85 µM in assay [8], 3.17 µM in assay [9] and 2.84 µM in assay [10].

Consider `CCN(Cc1ccc(F)cc1)c1cc(Cl)c(CO)c(Cl)c1`, for which the GI50 is 12.3 µM in [1]; 4.08 µM in [2]; 13.3 µM in assay [3]; 13 µM in assay [4]; 17.3 µM in assay [5]; 17.3 µM in assay [6]. Besides, the GI50 is 14.7 µM in assay [7], 12.2 µM in assay [8], 5.15 µM in assay [9] and 1.37 µM in assay [10]. The TGI came out at 29.1 µM in assay [1]; 17.9 µM in assay [2]; 26.8 µM in assay [3]; 32.6 µM in assay [4]; 31.4 µM in assay [5]; 31.5 µM in [6]. Besides, the TGI is 29.3 µM in [7], 25.4 µM in assay [8], 18.7 µM in assay [9] and 6.39 µM in assay [10].

As for `CCCCCCCCCCn1cc[n+](C)c1`, the GI50 in [1] is 3.79 µM; in assay [2] it was 2.07 µM; in [3] it was 2.54 µM; in assay [4] it was 0.226 µM; in assay [5] it was 1.7 µM; in assay [6], 3.33 µM. Also, the GI50 is 1.79 µM in [7], 10.3 µM in assay [8], 1.37 µM in [9] and 0.383 µM in assay [10]. The TGI in assay [1] came to 22.5 µM; in [2], 10.1 µM; in assay [3], 9.71 µM; in [4] it was 1.7 µM; in [5] it was 7.01 µM; in assay [6], 15.1 µM. In addition, the TGI in [7] is 13.2 µM; in assay [8], 50.7 µM; in [9], greater than 36.9 µM; in assay [10] it was 9.73 µM.

Values taken from PubChem BioAssay (NCI).
